Source: PMC7156458, “Synthetic biology based construction of biological activity-related library of fungal decalin-containing diterpenoid pyrones” (Nature Communications, 2020)
“And” between values parts separate entries of the source, which are not always exact repeats. Equal entries are not always repeated. Where two headings read alike, the source gives them in different places.

What was measured:
MAGI cells = experiment: cytotoxicity in the anti-HIV assay (CC50); type: cell-based; conditions: for Cytotoxicity Avg.: average of numeric determinations; for Cytotoxicity: single determinations
Text: (§1) We examined the inhibitory activities of DDPs against various species of bacteria (both gram-negative and gram-positive bacteria), fungi and viruses. […] In contrast, preliminary screening of the DDPs for anti-viral agents with hepatitis B virus (HBV), measles virus (MV), Epstein-Barr virus (EBV), herpes simplex virus (HSV) and human immunodeficiency virus-1 (HIV-1) indicated their selective inhibition of HIV.
Policy information about cell lines […]
HeLa-CD4-LTR/ !-galactosidase (MAGI) cells provided by Dr. J. Overbaugh through the NIH AIDS Research and Reference […]
MAGI cells were authenticated by the NIH.
Mycoplasma contamination All the cell lines tested negative for mycoplasma contamination.
Commonly misidentified lines No commonly mis-identified cell lines. […]

DL1 cells = experiment: cytotoxicity in Drosophila DL1 cells; type: cell-based; conditions: DL1 cells; for IC50: Drosophila melanogaster, cytotoxicity
Procedure: (§2) We screened the DDPs on the Drosophila assay system for cytotoxicity, inhibitory activity of innate immune signalling and insecticidal activity. The cytotoxicity of the DDPs was evaluated using two cell lines, embryonic macrophage-derived DL1 cells[58]–[60] and larval blood cell-derived l(2)mbn cells, and their IC50 values are listed in Supplementary Table 23.

[1] = cytotoxicity in Drosophila DL1 cells; type: cell-based; conditions: Drosophila, DL1 cells (embryonic macrophage-derived), DL1 cells
Procedure: as §2

[2] = system: human immunodeficiency virus-1 (HIV-1); experiment: anti-HIV MAGI assay; type: cell-based; conditions: anti-HIV
Text: as §1

l(2)mbn cells = experiment: cytotoxicity in Drosophila l(2)mbn cells; type: cell-based; conditions: for Luminescence Raw1: replicate 1; for Luminescence Raw2: replicate 2; for IC50: Drosophila melanogaster, cytotoxicity
Procedure: as §2

[3] = cytotoxicity in Drosophila l(2)mbn cells; type: cell-based; conditions: Drosophila, l(2)mbn cells (larval blood cell-derived)
Procedure: as §2

MCF-7 cells = experiment: cell cytotoxic effects against MCF-7 cells (72 h), A490; type: cell-based, human
[4] = average of two replicates, read-out: IC50 Average
[5] = replicate 1, read-out: IC50 (1)
[6] = replicate 2, read-out: IC50 (2)
[7] = replicate 1, relative to DMSO 1%, read-out: % viability, viability 1
[8] = replicate 2, relative to DMSO 1%, read-out: % viability, viability 2
[9] = Human immunodeficiency virus 1, MAGI, average of numeric determinations, read-out: Avg. EC50
[10] = MCF-7, 72 h, 0.1 µM (DMSO 0.002%), control 1.064
[11] = MCF-7, 72 h, 1 µM (DMSO 0.02%), control 1.104
[12] = MCF-7, 72 h, 10 µM (DMSO 0.2%), control 1.049

C=C1CCC2C(C)(CCC=C(C)C)C(=O)CCC2(C)C1Cc1c(O)c(C)c(C)oc1=O (stereo not shown) [Compound 8]
Cytotoxicity Avg. (MAGI cells): 8.816 µM | Cytotoxicity (MAGI cells): 9.604 µM and 7.239 µM | Luminescence Raw1 (DL1 cells; 0.04 µM, replicate 1): 2594102 | Luminescence Raw2 (DL1 cells; 0.04 µM, replicate 2): 2999528 | Luminescence Raw1 (DL1 cells; 0.2 µM, replicate 1): 2536752 | Luminescence Raw2 (DL1 cells; 0.2 µM, replicate 2): 2851638 | Luminescence Raw1 (DL1 cells; 1 µM, replicate 1): 1767451 | Luminescence Raw2 (DL1 cells; 1 µM, replicate 2): 1791254 | Luminescence Raw1 (DL1 cells; 4 µM, replicate 1): 250019 | Luminescence Raw2 (DL1 cells; 4 µM, replicate 2): 282109 | Luminescence Raw1 (DL1 cells; 10 µM, replicate 1): 313118 | Luminescence Raw2 (DL1 cells; 10 µM, replicate 2): 331147 | Luminescence Raw1 (DL1 cells; 20 µM, replicate 1): 296893 | Luminescence Raw2 (DL1 cells; 20 µM, replicate 2): 291484 | IC50 (DL1 cells; [4]): 5.02 µM | IC50 (DL1 cells; average±SEM, read-out: IC50): 5.02 ± 0.22 µM | IC50 (DL1 cells; [5]): 4.8 µM | IC50 (DL1 cells; [6]): 5.25 µM | viability at 0.04 µM [1, 7]: 189% | viability at 0.04 µM [1, 8]: 219% | viability at 0.2 µM [1, 7]: 185% | viability at 0.2 µM [1, 8]: 208% | viability at 1 µM [1, 7]: 129% | viability at 1 µM [1, 8]: 131% | viability at 4 µM [1, 7]: 18.2% | viability at 4 µM [1, 8]: 20.6% | viability at 10 µM [1, 7]: 22.8% | viability at 10 µM [1, 8]: 24.1% | viability at 20 µM [1, 7]: 21.6% | viability at 20 µM [1, 8]: 21.3% | EC50 [2, 9]: 0.0232 µM | Luminescence Raw1 (l(2)mbn cells; 0.04 µM): 5399824 | Luminescence Raw2 (l(2)mbn cells; 0.04 µM): 5163481 | Luminescence Raw1 (l(2)mbn cells; 0.2 µM): 5509158 | Luminescence Raw2 (l(2)mbn cells; 0.2 µM): 5734687 | Luminescence Raw1 (l(2)mbn cells; 1 µM): 5444928 | Luminescence Raw2 (l(2)mbn cells; 1 µM): 5762112 | Luminescence Raw1 (l(2)mbn cells; 4 µM): 4437905 | Luminescence Raw2 (l(2)mbn cells; 4 µM): 5343895 | Luminescence Raw1 (l(2)mbn cells; 10 µM): 177623 | Luminescence Raw2 (l(2)mbn cells; 10 µM): 184474 | Luminescence Raw1 (l(2)mbn cells; 20 µM): 114164 | Luminescence Raw2 (l(2)mbn cells; 20 µM): 158874 | IC50 (l(2)mbn cells; [4]): 5.14 µM | IC50 (l(2)mbn cells; average±SEM, read-out: IC50): 5.14 ± 0.3 µM | IC50 (l(2)mbn cells; [5]): 4.83 µM | IC50 (l(2)mbn cells; [6]): 5.44 µM | viability at 0.04 µM [3, 7]: 86% | viability at 0.04 µM [3, 8]: 82.2% | viability at 0.2 µM [3, 7]: 87.7% | viability at 0.2 µM [3, 8]: 91.3% | viability at 1 µM [3, 7]: 86.7% | viability at 1 µM [3, 8]: 91.8% | viability at 4 µM [3, 7]: 70.7% | viability at 4 µM [3, 8]: 85.1% | viability at 10 µM [3, 7]: 2.83% | viability at 10 µM [3, 8]: 2.94% | viability at 20 µM [3, 7]: 1.82% | viability at 20 µM [3, 8]: 2.53%

C=C1CCC2C(C)(CCC=C(C)C)C(O)CCC2(C)C1Cc1c(OC)oc(CO)c(C)c1=O (stereo not shown) [Compound 16]
Cytotoxicity Avg. (MAGI cells): 6.65 µM | cytotoxicity against the bulk of MCF-7 cells (MCF-7 cells): Low-toxicity | A490 ave (MCF-7 cells; [10]): 0.808 | A490 ave (MCF-7 cells; [11]): 1.178 | A490 ave (MCF-7 cells; [12]): 0.730 | EC50 ([2]; average of numeric determinations, read-out: Avg. EC50): 0.0483 µM | EC50 ([2]; single determinations, read-out: Efficacy (EC50)): 0.0556 µM and 0.0364 µM and 0.0546 µM and 0.0464 µM

C=C1CC[C@@H]2[C@](C)(CC[C@H]3O[C@H](C=C(C)C)C[C@@]23C)[C@@H]1Cc1c(OC)oc(C)c(C)c1=O [Compound 22, O-methylated higginsianin A]
Cytotoxicity Avg. (MAGI cells): 5.079 µM | Cytotoxicity (MAGI cells): 5.68 µM and 5.915 µM and 3.643 µM | cytotoxicity against the bulk of MCF-7 cells (MCF-7 cells): dose-dependent cytotoxicity | viability at 0.1 µM (MCF-7 cells; Homo sapiens, MCF7, 72 h, MCF-7, 72 h, 0.1 µM (DMSO 0.002%), read-out: A490 (control =1) ave): 81.4% | viability at 1 µM (MCF-7 cells; Homo sapiens, MCF7, 72 h, MCF-7, 72 h, 1 µM (DMSO 0.02%), read-out: A490 (control =1) ave): 48% | viability at 10 µM (MCF-7 cells; Homo sapiens, MCF7, 72 h, MCF-7, 72 h, 10 µM (DMSO 0.2%), read-out: A490 (control =1) ave): 30.1% | A490 ave (MCF-7 cells; [10]): 0.866 | A490 ave (MCF-7 cells; [11]): 0.530 | A490 ave (MCF-7 cells; [12]): 0.316 | EC50 [2, 9]: 0.143 µM
